Experiments:
[1] = biological target: T1, c-fms intracellular domain (Homo sapiens, UniProt P07333); assay: c-fms protein kinase assay; format: biochemical; settings: 1.7 μM ATP, 90 min at room temperature; read-out: Kinase inhibition c-fms (IC50)
T1 construct: The c-fms intracellular domain was expressed from a baculovirus expression system, as an amino-terminal GST fusion protein; GST (N); made in house; host or cells: baculovirus expression system
T1 sequence (P07333 539-972 limits assumed): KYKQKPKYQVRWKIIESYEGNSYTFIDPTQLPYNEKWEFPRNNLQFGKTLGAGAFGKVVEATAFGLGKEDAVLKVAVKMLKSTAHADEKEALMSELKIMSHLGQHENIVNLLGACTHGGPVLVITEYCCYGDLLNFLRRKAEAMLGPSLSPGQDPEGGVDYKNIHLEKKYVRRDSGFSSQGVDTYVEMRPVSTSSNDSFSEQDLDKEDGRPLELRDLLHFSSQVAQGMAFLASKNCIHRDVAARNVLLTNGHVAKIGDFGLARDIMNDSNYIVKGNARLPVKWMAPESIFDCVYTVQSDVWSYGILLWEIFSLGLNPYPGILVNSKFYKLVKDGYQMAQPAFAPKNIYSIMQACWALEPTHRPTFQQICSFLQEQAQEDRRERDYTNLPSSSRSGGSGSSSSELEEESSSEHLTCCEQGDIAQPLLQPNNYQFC
Method: c-fms protein kinase assays utilized the peptide substrate, biotin-[…]-NH2, as the phosphoryl group acceptor. The c-fms intracellular domain was expressed from a baculovirus expression system, as an amino-terminal GST fusion protein, and purified to homogeneity using Glutathione agarose from Sigma Chemical Co. Maximum activation of the enzyme was achieved by preactivation at room temperature for 120 min in the presence of 100 μM ATP and 15 mM MgCl2, This enzyme stock was diluted to 150 nM prior to using in the assay. Typically assays were performed in white, opaque, 96-well plates in a 45 ul assay volume including 15 ul 6% DMSO, with or without compounds, 15 ul of the preactivated, diluted enzyme, and 15 ul of a substrate mixture. Reactions contained 50 mM HEPES, pH 7.5, 1.7 μM ATP, 15 mM MgCl2, 3 μM peptide, 2.5 mM DTT, 50 mM NaCl and 0.15 uCi/assay [^32P]ATP. The controls were reactions in the presence (negative controls) or absence (positive controls) of 50 mM EDTA. Reactions were allowed to proceed for 90 min at room temperature. The reaction products were quantified using Scintillation Proximity technolgy. […] Plates were sealed and counted in a Packard Topcount scintillation counter. […]

[2] = test system: human umbilical vein endothelial cells (HUVECs); assay: HUVEC BrdU incorporation, bFGF stimulation; format: cell-based; settings: 0.3 ng/ml bFGF, 72 hrs; read-out: Inhibition of BrdU incorporation in HUVEC cells, BFGF Stimulation (IC50)
From the text: (§1) An assay to measure this effect involves measurement of the inhibition of bromo-deoxy uridine (BrdU) incorporation (evidence of DNA synthesis) in human umbilical vein endothelial cells (HUVECs).
(§2) HUVEC cells and EGM (Endothelial cell growth medium) were purchased from Clonetics (San Diego, Calif.). VEGF and bFGF were purchased from Genzyme. M199 medium (Gibco BRL) with BSA (Sigma) was used for cell culture in Type I collagen coated plates (Becton Dickinson). The degree of BrdU incorporation was measured using a commercial colorimetric ELISA assay from Boehringer Mannheim.
(§3) HUVECs were plated at a density of 2500 cells per well in M199 medium containing 5% FBS (Hyclone) in a Type-I Collagen coated plate. The plate was incubated at 37° C. overnight. The medium was removed by aspiration, and test compounds were added to each well in a volume of 0.1 ml per well in serum-free M199 medium. […] The plate was incubated for 30 min at 37° C. Another 0.1 ml of serum-free M199 medium containing BSA and VEGF (or bFGF) was added to give a final concentration of 0.1% BSA and 20 ng/ml VEGF (0.3 ng/ml bFGF). The plate was incubated at 37° C. for 72 hrs. BrdU was added to each well after the first 48 hrs to give a concentration of 10 micomolar. The calorimetric ELISA assay was performed according to manufacturer's instructions, with detection by absorbance reading at 450 nm.

[3] = test system: human umbilical vein endothelial cells (HUVECs); assay: HUVEC BrdU incorporation, VEGF stimulation; format: cell-based; settings: 20 ng/ml VEGF, 72 hrs; read-out: Inhibition of BrdU incorporation in HUVEC cells, VEGF stimulation (IC50)
From the text: as §1, §2, §3

**Q.** What does the source list for O=C1Nc2ccc3ncccc3c2/C1=C/Nc1ccc(CCO)cc1 [Example 32]?
**A.** IC50 [1]: > 0.1 µM; IC50 [2]: 1.1 to 5 µM; IC50 [3]: 0.01 to 0.5 µM
